From patent US20230330059A1, “3-PHENYL-2H-CHROMENE DERIVATIVE AND PHARMACEUTICAL COMPOSITION FOR PREVENTING OR TREATING ALZHEIMER'S, CONTAINING SAME” (NEUROBIONET, INC., priority 2020, published 2023) come the findings set out here.

Like-named read-outs stand apart in the source and are kept apart here.

The subject of assay [1] is N2a cells. Nature of the assay: Neurite outgrowth in N2a cells (Incucyte). Particulars: 5 µM, FIGS. 14a and 14b. It counts as cell-based, mouse. The protocol: N2a cells were aliquoted at a density of 1x10^4 cells/well into 24-well plates, treated with daidzein, o-desmethylangolensin, S-equal, SPA1413 and SPA1426 at 5 µM, and evaluated for neurite outgrowth by the real-time cell monitoring system InCucyte. The cells were photographed every 2 hours, and the neurites were counted through Incucyte software.

Assay [2] has as its system nitric oxide production in LPS-treated BV2 cells. Nature of the assay: Nitric oxide production (Griess) in LPS-treated BV2 cells. The assay is classed as cell-based, mouse. The settings on record: LPS (100 ng/ml) 24 hours, Griess reagent, cell type not stated in Table 1, read-out: IC50 (NO production). The method, then: BV2 cells were seeded at a density of 4 x 10^5 cells/well into 96-well plates, and primary microglial cells isolated from the brain of […] ICR mice were seeded at a density of 4 x 10^5 cells/well into 24-well plates.
The culture media were collected and measured for NO production using a Griess reagent solution (1% sulfanilamide and 0.1% N-1-naphthyl ethylenediamine dihydrochloride in 5% phosphoric acid). Briefly, a total of 50 µL of the supernatant was transferred to new 96-well plates and mixed with the same volume of the Griess reagent solution, followed by measuring OD at 570 nm. In addition, the cell viability was assayed in the same manner as in Experimental Example 2.

In the case of `O=c1c(-c2ccc(O)cc2)coc2cc(O)ccc12` [Daidzein, reference compound], the neurite outgrowth result in assay [1] is given as “significantly increased”. For the same molecule, the concentration for half-maximal inhibition (IC50) in assay [2] (Mus musculus, BV-2) was determined as 86.5 µM.

For the molecule `CNC(=N)NCCC[C@H](N)C(=O)O` [L-NMMA, reference compound], in assay [2], the IC50 was 15.1 µM. Regarding `CC(C(=O)c1ccc(O)cc1O)c1ccc(O)cc1` (centres unmarked) [O-DMA, o-desmethylangolensin, reference compound], the half-inhibitory concentration (IC50) in assay [2] was 34.7 µM.

As to `Oc1ccc([C@H]2COc3cc(O)ccc3C2)cc1` [S-equol, reference compound], the half-inhibitory concentration (IC50) in assay [2] was 11.7 µM.

In general, IC50 refers to the concentration needed to halve the response being measured.
